Source: patent US11632954B2, “Polymorphs of 5-fluoro-4-imino-3-methyl-1 -tosyl-3,4-dihydropyrimidin-2-one” (ADAMA MAKHTESHIM LTD., priority 2017, dated 2023)
Blank lines part the entries; values can stand above or below the compound they belong to.

Assays:
Type in all cases: physicochemical
[1] = Solid-state hygroscopicity / stability against hydration
[2] = TG-FTIR thermogram, beginning of decomposition; conditions: N2 atmosphere; 10° C./min, 25 to 300° C.
Protocol: FT-Raman Spectroscopy: Bruker Multi-RAM with OPUS 6.5 software; Nd:YAG 1064-nm excitation, Ge detector, 3500-50 cm-1 range; typical measurement conditions: 300 mW nominal laser power, 64 scans, 2 cm-1 resolution; samples pressed into the cavity of aluminum sample holders TG-FTIR: Netzsch Thermo-Microbalance TG 209 with Bruker FT-IR Spectrometer Vector 22; aluminum crucible (with microhole); N2 atmosphere; 10° C./min heating rate, from 25 to 300° C.

[3] = Relative thermodynamic stability of Forms I and II: competitive slurry experiments; conditions: for Result (XRPD): seeded with Form I + Form II after 4 h, analyzed wet
Protocol: (§1) The relative thermodynamic stability of the polymorphs was determined by slurry experiments at RT and 5° C. […] The stability was further investigated at 5° C. and in addition, another experiment was performed at MEK at RT. MEK was chosen as suspending media because that was the only solvent where Form II was formed when slurrying the starting material. […] The experiment at 5° C. in TBME was actually carried out only as a control.

[4] = Critical water activity: seeded suspension equilibration of Hydrate vs anhydrous Forms I and II in 2-PrOH/water and THF/water; conditions: for Result (XRPD): analyzed wet
Protocol: The critical water activity between the Hydrate and anhydrous Forms I and II was attempted to be determined at room temperature in 2-PrOH/water and THF/water mixtures. […] After two additional days of stirring at RT, the solid was separated from the liquid by centrifuge filtering.
In order to clarify the root cause of the surprising results regarding the critical water activities, three further experiments were performed. The slurries at water activities of 0.5 and 0.7 were repeated using freshly prepared solvent mixtures and the suspension equilibration at a water activity of 0.7 was also performed in 2-PrOH/water mixture. The formation of thick suspension in 2-PrOH/water mixtures was experienced again; the initially obtained thick suspension turned into a well-stirred slurry upon one day of stirring. Then it was seeded with the three forms and the solid was isolated after additional two days of stirring.

[5] = Dehydration of the Hydrate, DSC in an open pan
Protocol: DSC: TA Instruments DSC Q2000; hermetically closed gold crucible; N2 atmosphere; 10° C./min heating rate, from 20 to 190° C. The melting point is understood as the peak onset.
1) Measuring by DSC in an open pan, the water of crystallization evaporates in the temperature range of 20-100° C. Then a sharp endothermic event due to melting follows in the thermogram at 159° C. (FIG. 10).

[6] = Solubility in suspending medium; conditions: in MEK
Protocol: as §1

[7] = Solvate formation in suspension crystallization at RT
Protocol: (§2) 1) About 100 mg of 5-fluoro-4-imino-3-methyl-1-tosyl-3,4-dihydropyrimidin-2(1H)-one was suspended in 1.0 ml of 2-PrOH previously dried over 4 Å molecular sieves and the suspension was stirred for 11 d at RT and filtered through a 0.2-μm PTFE centrifuge filter and analyzed without drying, or dried in dry N2 stream at RT for 1 h.
as §2, with “2)” for “1)”, “tert-butyl methyl ether (TBME)” for “2-PrOH”, “RT,” for “RT and”, “drying.” for “drying, or dried in dry N2 stream at RT for 1 h.”
3) About 100 mg of 5-fluoro-4-imino-3-methyl-1-tosyl-3,4-dihydropyrimidin-2(1H)-one was suspended in 1.0 ml of toluene previously dried over 4 Å molecular sieves and the suspension was stirred for 11 d at RT, filtered through a 0.2-μm PTFE centrifuge filter and analyzed without drying.
Form II was prepared by suspension crystallization. About 120 mg of 5-fluoro-4-imino-3-methyl-1-tosyl-3,4-dihydropyrimidin-2(1H)-one was suspended in 0.8 ml of methyl ethyl ketone (MEK) previously dried over 4 Å molecular sieves and the suspension was stirred for 11 d at room temperature and filtered through a 0.2-μm PTFE centrifuge filter. The solid was allowed to dry under ambient conditions for 1 d.

SMILES: Cc1ccc(S(=O)(=O)n2cc(F)c(=N)n(C)c2=O)cc1 [Form I, 5-fluoro-4-imino-3-methyl-1-tosyl-3,4-dihydropyrimidin-2(1H)-one]
- hygroscopicity [1]: non-hygroscopic
- kinetic stability against hydration ([1]; at higher relative humidity): high kinetic stability against hydration
- decomposition beginning at a temperature (TG-FTIR) [2]: greater than 210 °C
- relative stability vs Form II in competitive slurry ([3]; TBME at 5° C.): unequivocally more stable than Form II
- thermodynamic stability vs polymorph Form II ([3]; at 5° C. and above): thermodynamically more stable than polymorph Form II
- relative thermodynamic stability vs Form II ([3]; water activities of 0.1 and 0.3, RT): more stable
- relative thermodynamic stability among the three forms suspended ([4]; water activity of 0.3 and below, RT): thermodynamically most stable
- thermodynamic stability vs the hydrate form ([4]; water activity of 0.3 or less at room temperature): thermodynamically more stable than the hydrate form

SMILES: Cc1ccc(S(=O)(=O)n2cc(F)c(=N)n(C)c2=O)cc1 [Form II, 5-fluoro-4-imino-3-methyl-1-tosyl-3,4-dihydropyrimidin-2(1H)-one]
- decomposition beginning at a temperature (TG-FTIR) [2]: greater than 210 °C
- relative thermodynamic stability among the three forms suspended ([4]; water activity of 0.7, RT (Table 1), patent assumes this finding untrue): more stable

SMILES: Cc1ccc(S(=O)(=O)n2cc(F)c(=N)n(C)c2=O)cc1 [Form S1, 5-fluoro-4-imino-3-methyl-1-tosyl-3,4-dihydropyrimidin-2(1H)-one]
- decomposition beginning at a temperature (TG-FTIR) [2]: greater than 200 °C

SMILES: Cc1ccc(S(=O)(=O)n2cc(F)c(=N)n(C)c2=O)cc1 [Form S5, 5-fluoro-4-imino-3-methyl-1-tosyl-3,4-dihydropyrimidin-2(1H)-one]
- decomposition beginning at a temperature (TG-FTIR) [2]: greater than 180 °C

SMILES: Cc1ccc(S(=O)(=O)n2cc(F)c(=N)n(C)c2=O)cc1 [Form S8, 5-fluoro-4-imino-3-methyl-1-tosyl-3,4-dihydropyrimidin-2(1H)-one]
- decomposition beginning at a temperature (TG-FTIR) [2]: greater than 180 °C

Second part, led by results:

- decomposition beginning at a temperature (TG-FTIR) [2]: greater than 190 °C
- relative thermodynamic stability among the three forms suspended ([4]; water activity of 0.5 and 0.9, RT (Table 1)): more stable
- relative stability vs Form I and Form II (ultimate finding) ([4]; water activity of 0.5 and higher at RT): more stable than the two anhydrous forms
- temperature range in which the water of crystallization evaporates [5]: 20-100 °C
SMILES: Cc1ccc(S(=O)(=O)n2cc(F)c(=N)n(C)c2=O)cc1 [Hydrate, 5-fluoro-4-imino-3-methyl-1-tosyl-3,4-dihydropyrimidin-2(1H)-one]
- form resulting from dehydration ([5]; melting at 159° C. coincides with Form I): anhydrous Form I

- solubility [6]: rather high
- Result (XRPD) ([3]; MEK (dry), 5° C.): Form S9 + Form I
- Result (XRPD) ([3]; MEK (dry), 22° C.): Form I + Form II
- Result (XRPD) ([3]; TBME (dry), 5° C.): Form I
- Result (XRPD) ([4]; 2PrOH/water = 89.6/10.4, aw 0.7, seeded with HH + Form I + Form II after 1 d): HH″ + traces
- Result (XRPD) ([4]; 2PrOH/water = 94.7/5.3, aw 0.5, RT, seeded with HH + Form I + Form II after 3 d): HH′
- Result (XRPD) ([4]; 2PrOH/water = 97.5/2.5, aw 0.3, RT, seeded with HH + Form I + Form II after 3 d): Form I
- Result (XRPD) ([4]; 2PrOH/water = 99.3/0.7, aw 0.1, RT, seeded with HH + Form I + Form II after 3 d, 2 d more stirring): Form I
- Result (XRPD) ([4]; THF/water = 79.7/21.3, aw 0.9, RT, seeded with HH + Form I + Form II after 3 d): HH″
- Result (XRPD) ([4]; THF/water = 96.4/3.6, aw 0.7, RT, seeded with HH + Form I + Form II after 3 d): Form II
- Result (XRPD) ([4]; repeat, fresh solvent, 2PrOH/water = 94.7/5.3, aw 0.5, seeded with HH + Form I + Form II after 1 d): HH″ + some
- Result (XRPD) ([4]; repeat, fresh solvent, THF/water = 96.4/3.6, aw 0.7, seeded with HH + Form I + Form II after 1 d): HH′
SMILES: Cc1ccc(S(=O)(=O)n2cc(F)c(=N)n(C)c2=O)cc1 [PP539-P1, 5-fluoro-4-imino-3-methyl-1-tosyl-3,4-dihydropyrimidin-2(1H)-one]
- formation of thermodynamically stable solvates ([7]; with MEK at RT, Form II formed): does not form thermodynamically stable solvates
- formation of thermodynamically stable solvates ([7]; with toluene, 2-PrOH and TBME at RT, Form I formed): does not form thermodynamically stable solvates
